The assay has as its system osteoclast pregenitor cells. Nature of the assay: Inhibition rates of furan derivatives versus osteoclast formation (TRAP staining). The assay is classed as cell-based, mice. The settings on record: TRAP-positive multinucleated cells, untreated control set as 100%. As for the experimental part:
First, bone marrow cells were isolated, as follow. After sacrificing 7-9 week female mice by cervical dislocation, femur and tibia were excised aseptically while removing attached soft tissues. After cutting both ends of long bones, 1 ml of an enzyme solution, containing 0.1% collagenase (Gibco), 0.05% trypsin and 0.5 mM EDTA (Gibco), was injected to the bone marrow cavity at one end using a syringe with a 26-guage needle, and bone marrow was then collected. After shaking the recovered bone marrow for 30 min, bone marrow cells were collected, and cultured in α-minimum essential medium (α-MEM) supplemented with 10% FBS for 24 hrs. Then, non-adherent cells were collected, which are osteoclast pregenitors, aliquotted onto culture plates at a density of 2×10^5 cells per well, and cultured for 8 days in α-MEM supplemented with 20 ng/ml of macrophage-colony stimulating factor (M-CSF, Peprotech, USA) and 30 ng/ml RANKL (Peprotech, USA). During the 8 days of culturing, the cells were treated with the Compound 1. Thereafter, osteoclast formation was investigated by fixing the cultured cells and then carrying out TRAP staining, as described in the following Experimental Example 2.2. In addition, resorption activity of osteoclasts was investigated by measuring the absorption area after removing osteoclasts in cultures in calcium phosphate-coated plates, as described in Experimental Example 2.3, below.
After cell culture, the adherent cells were washed with PBS, and TRAP staining was performed, as follows. After being fixed with citrate-acetate-formaldehyde for 5 min, the cells were incubated for 1 hr in acetate buffer (prewarmed at 37° C., pH 5.0) containing naphthol AS-BI phosphate, fast Garnet GBC and 7 mM tartrate buffer (pH 5.0). TRAP-positive multinucleated cells having 3 or more nuclei were considered as osteoclasts.
Osteoclast pregenitor cells were isolated, and their differentiation to mature osteoclasts was induced, according to the same method as in the Experimental Example 2-1, while treated with each of the furan derivatives of the present invention. According to the same method as in the Experimental Example 2-2, TRAP staining performed, and TRAP-positive multinucleated cells were counted. An inhibition rate of each furan derivative against osteoclast formation was expressed as percentage, wherein the number of stained cells in a control not treated the furan derivative was arbitrarily set as 100% (Tables 14 to 16).

For the compound `Cc1cc(OCc2ccc(C(=O)N3CCOCC3)o2)ccc1Cl` [Compound 132], the “Inhibition rate against osteoclast formation, %” value (“Inhibition rate … %” below) reads like this: (0.1 μM) 0%; (1 μM) 0%; (10 μM) 62.30%.
Turning to `O=C(c1ccc(COc2cc(Cl)ccc2Cl)o1)N1CCCCCC1` [Compound 133], the “Inhibition rate … %” value (0.1 μM) worked out at 0%; the “Inhibition rate … %” value (1 μM) stood at 0%; the “Inhibition rate … %” value (10 μM) was found to be 0.5%.
As to `CC(C)(C)c1ccc(OCc2ccc(C(=O)NC3CCCCC3)o2)cc1` [Compound 134], the “Inhibition rate … %” value runs as follows: (0.1 μM) 0%; (1 μM) 0%; (10 μM) 21.42%.
Turning to `CC(C)(C)c1ccc(OCc2ccc(C(=O)Nc3ccccc3)o2)cc1` [Compound 136], the “Inhibition rate … %” value by setting is: (0.1 μM) 0%; (1 μM) 0%; (10 μM) 2.49%.
With `O=C(Nc1ccccc1)c1ccc(COc2ccc3ccccc3c2)o1` [Compound 137], the “Inhibition rate … %” value amounted to 0% (0.1 μM), 0% (1 μM) and 38.3% (10 μM).
As for `O=C(Nc1cccc(Br)c1)c1ccc(COc2ccc(F)cc2)o1` [Compound 140], the “Inhibition rate … %” value runs as follows: (0.1 μM) 0%; (1 μM) 0%; (10 μM) 11.93%.
`O=C(Nc1ccc(F)cc1)c1ccc(COc2cccc(Cl)c2)o1` [Compound 141]: the “Inhibition rate … %” value by setting is: (0.1 μM) 0%; (1 μM) 0%; (10 μM) 13.01%.
Regarding `COc1ccc(NC(=O)c2ccc(COc3ccccc3Cl)o2)cc1Cl` [Compound 142], the “Inhibition rate … %” value (0.1 μM) is reported as 0%; the “Inhibition rate … %” value (1 μM) worked out at 0%; the “Inhibition rate … %” value (10 μM) turned out to be 32.17%.
`O=C(Nc1ccc(F)c(F)c1)c1ccc(COc2ccc(I)cc2)o1` [Compound 143]: the “Inhibition rate … %” value (0.1 μM) was 0%; the “Inhibition rate … %” value (1 μM) was determined as 0%; the “Inhibition rate … %” value (10 μM) was determined as 10.63%.
In the case of `CCOc1ccccc1NC(=O)c1ccc(COc2ccc(Cl)cc2[N+](=O)[O-])o1` [Compound 144], the “Inhibition rate … %” value runs as follows: (0.1 μM) 0%; (1 μM) 21.95%; (10 μM) 85.25%.
The corresponding values for `COc1ccc(NC(=O)c2ccc(COc3cc(Cl)ccc3Cl)o2)c(OC)c1` [Compound 145] are 0%, 5.98% and 83.3%.
`O=C(Nc1ccc(Br)cc1)c1ccc(COc2ccc(I)cc2)o1` [Compound 146]: the “Inhibition rate … %” value is, setting by setting: (0.1 μM) 0%; (1 μM) 0%; (10 μM) 10.03%.
For the compound `Cc1ccc(OCc2ccc(C(=O)Nc3ccc(F)cc3)o2)c([N+](=O)[O-])c1` [Compound 147], the “Inhibition rate … %” value reads like this: (0.1 μM) 6.11%; (1 μM) 19.4%; (10 μM) 99.72%.
With `NC(=O)c1ccc(NC(=O)c2ccc(COc3cc(Cl)ccc3Cl)o2)cc1` [Compound 148], the “Inhibition rate … %” value is 0% (0.1 μM), 3.05% (1 μM) and 47.55% (10 μM).
The corresponding values for `COc1ccc(NC(=O)c2ccc(COc3ccc(F)cc3)o2)c([N+](=O)[O-])c1` [Compound 149] are 0%, 10.32% and 78.34%.
As to `COc1ccc(NC(=O)c2ccc(COc3ccc(Cl)c(C)c3)o2)cc1` [Compound 150], the “Inhibition rate … %” value by setting is: (0.1 μM) 0%; (1 μM) 0%; (10 μM) 19.12%.
Regarding `O=C(Nc1cc(F)ccc1F)c1ccc(COc2cccc(Cl)c2)o1` [Compound 151], the “Inhibition rate … %” value runs as follows: (0.1 μM) 0%; (1 μM) 0%; (10 μM) 19.8%.
On to `COC(=O)c1ccc(C)c(NC(=O)c2ccc(COc3ccc(I)cc3)o2)c1` [Compound 152], for which the “Inhibition rate … %” value runs as follows: (0.1 μM) 5.37%; (1 μM) 0.08%; (10 μM) 37.56%.
The corresponding values for `Cc1ccc(F)c(NC(=O)c2ccc(COc3ccc(C)cc3[N+](=O)[O-])o2)c1` [Compound 155] are 0%, 0% and 27.92%.
The corresponding values for `O=C(Nc1cccc(Cl)c1Cl)c1ccc(COc2ccccc2[N+](=O)[O-])o1` [Compound 156] are 13.01%, 18.26% and 98.48%.
The corresponding values for `COc1ccccc1NC(=O)c1ccc(COc2cc(C)ccc2C)o1` [Compound 157] are 4.87%, 10.71% and 97.46%.
For the compound `Cc1ccc(F)c(NC(=O)c2ccc(COc3ccccc3[N+](=O)[O-])o2)c1` [Compound 158], the “Inhibition rate … %” value is, setting by setting: (0.1 μM) 0%; (1 μM) 0%; (10 μM) 23.57%.
`CC(=O)c1ccc(NC(=O)c2ccc(COc3cccc4ccccc34)o2)cc1` [Compound 160]: the “Inhibition rate … %” value is reported as 0% (0.1 μM), 0% (1 μM) and 38.96% (10 μM).
In the case of `O=C(Nc1cc(F)ccc1F)c1ccc(COc2ccccc2Cl)o1` [Compound 161], the “Inhibition rate … %” value by setting is: (0.1 μM) 0%; (1 μM) 0%; (10 μM) 11.33%.
Take `CCc1cccc(NC(=O)c2ccc(COc3ccc(F)cc3)o2)c1` [Compound 163]: the “Inhibition rate … %” value by setting is: (0.1 μM) 0%; (1 μM) 0%; (10 μM) 51.2%.
With `CCCc1ccc(OCc2ccc(C(=O)Nc3ccc(OC)c(OC)c3)o2)cc1` [Compound 164], the “Inhibition rate … %” value stood at 0% (0.1 μM), 0% (1 μM) and 30.52% (10 μM).
Regarding `CCOc1ccc(OCc2ccc(C(=O)NC(C)(C)C)o2)cc1` [Compound 165], the “Inhibition rate … %” value was 12.35% (0.1 μM), 28.76% (1 μM) and 88.75% (10 μM).
Take `COc1ccccc1NC(=O)c1ccc(COc2ccccc2OC)o1` [Compound 166]: the “Inhibition rate … %” value (0.1 μM) worked out at 0%; the “Inhibition rate … %” value (1 μM) was 0%; the “Inhibition rate … %” value (10 μM) is reported as 1.08%.
For the compound `COC(=O)c1ccccc1NC(=O)c1ccc(COc2ccc(Cl)cc2Cl)o1` [Compound 167], the “Inhibition rate … %” value was found to be 0% (0.1 μM), 22.42% (1 μM) and 96.47% (10 μM).
Take `CCc1ccc(OCc2ccc(C(=O)Nc3cc(C)cc(C)c3)o2)cc1` [Compound 169]: the “Inhibition rate … %” value is 0% (0.1 μM), 0% (1 μM) and 21.04% (10 μM).
On to `CCCc1ccc(OCc2ccc(C(=O)Nc3cc(Cl)ccc3Cl)o2)cc1` [Compound 170], for which the “Inhibition rate … %” value by setting is: (0.1 μM) 0%; (1 μM) 0%; (10 μM) 16.31%.
For `COc1ccc(C)cc1NC(=O)c1ccc(COc2cccc(Cl)c2)o1` [Compound 171], the “Inhibition rate … %” value (0.1 μM) is 0%; the “Inhibition rate … %” value (1 μM) was 0%; the “Inhibition rate … %” value (10 μM) stood at 0.42%.
For `Cc1cc(OCc2ccc(C(=O)Nc3cccc(C)c3C)o2)ccc1Cl` [Compound 172], the “Inhibition rate … %” value by setting is: (0.1 μM) 0%; (1 μM) 0%; (10 μM) 11.08%.

The values above are taken from patent US20060004088A1, “Furan derivatives for preventing and curing osteoporosis and pharmaceutical compositions containing the same” (OCT INC., priority 2002, published 2006).
